Values quoted from earlier work in patent US9814693B2 (priority 2012, dated 2017).
Structures can show the parent of a compound that is named as a salt.

Legend:
L1210 leukemia = conditions: mice, early form of L1210 leukemia, various doses
mice [1] = conditions: after the start of treatment (time not given); these and previous studies
[2] = in vivo
Barle's L cells = conditions: percentage of control cloning efficiency
NK/Ly tumor = conditions: NK/Ly tumor-bearing mice
erythrocytes [3] = conditions: fresh whole dog blood, 37° C., within 2 hours
erythrocytes [4] = system: erythrocytes
[5] = compared with all the diepoxyhexitols
[6] = not given; remark: listed apart in the source
rabbits [7] = system: rabbits
rabbits [8] = conditions: i.v. 2.5 and 0.25 mg/kg every second day for 30 or 70 days
[9] = system: Ehrlich ascites tumor cells
[10] = normal brain and intracerebral tumor tissue
[11] = system: Chinese hamster cell cultures; conditions: low doses, in vitro
[12] = solution in distilled water
[13] = system: intracerebral murine ependymoblastomas; conditions: intracerebral tumors
S180 ascites tumors = conditions: S180 ascites tumor
mice [14] = system: mice
CML = conditions: first-line

In the case of `O[C@H]([C@H](O)[C@@H](O)CBr)[C@H](O)CBr` [dibromodulcitol], the solubility in water is listed as “hardly soluble in water”, the prolongation of lifespan (L1210 leukemia) is listed as 40% and the “drug accumulation of five cytostatic hexitol derivatives” value (“drug accumulation” for short) (mice [1]) is listed as 62%. For the same molecule, the “effect on the tumor” value (Ehrlich ascites tumor; doses equitoxic to 0.75 mg/kg dianhydrogalactitol) was “no effects”, the relative effectiveness (Harding-Passey melanoma) was “more effective than dianhydrogalactitol” and the “absorption by the oral route” value [2] was “rapid and fairly complete”. The “concentration giving 50 percent survival (cloning efficiency)” value (Barle's L cells) was 75 µg/mL, the mitotic index (HeLa cell cultures; 10-μg dose, untreated control 2.9%) was 0 and the increase in lifespan (NK/Ly tumor) was 90%.
For `OC(C1CO1)C(O)C1CO1` (centres unmarked) [dianhydrogalactitol, 1,2:5,6-Dianhydrogalactitol], the prolongation of lifespan (L1210 leukemia) is listed as 50%-200%, the “incubated dose bound to erythrocytes” value (erythrocytes [3]) is listed as 37.7% and the “death, time after injection” value (beagle dogs; dog 1, 6 mg/kg i.v. on day 8 after 3 mg/kg on day 1) is listed as 7 days. The “death, time after administration” value (beagle dogs; dog 2, 6 mg/kg i.v.) was 12 days, the “doses at which toxicity occurs” value (beagle dogs; dog, i.v.) was “greater than 3 mg/kg” and the “findings associated with death” value (beagle dogs; dogs given 6 mg/kg i.v.) was “bone marrow hypoplasia, leucopenia, and thrombocytopenia”. For the same molecule, the “drug accumulation” value (mice [1]) was 0%, the “animals recovered after treatment” value (Ehrlich ascites tumor) was “Fifty” and the tumor weight inhibition (Ehrlich ascites tumor; 0.75 mg/kg (one-sixtieth of the LD50)) was 68%. The “initially present drug remaining with the erythrocytes” value (erythrocytes [4]; after dialysis for 14 hours) was 36%, the “initially erythrocyte-bound drug lost to the dialysis medium” value (erythrocytes [4]; within 2 hours, pH 7.4, 37° C.) was 50% and the chemical stability [5] was “most chemically stable”. For the same molecule, the “dose dependence of distribution and elimination” value ([6]; 3 and 6 mg/kg, one dog) was “dose-independent”, the “mean Cl” value ([6]; dogs, i.v. 3 and 6 mg/kg) was 23.4 mL/min/kg and the “mean value of V” value ([6]; dogs, i.v. 3 and 6 mg/kg) was 0.462 L/kg. For the same molecule, the “mean value of VDss” value ([6]; dogs, i.v. 3 and 6 mg/kg) was 0.779 L/kg, the “mean t1,2,β” value ([6]; dogs, i.v. 3 and 6 mg/kg, intact drug in plasma) was 26.6 min and the “changes in the parenchymal organs” value (rats; single 10, 5 or 2.5 mg/kg dose, 1 hour to 21 days) was “No changes”. For the same molecule, the LD50 (rats; single dose) was 10 mg/kg, the “effect on platelet counts” value (rabbits [7]; repeated injections of smaller doses (17×2.5, 17×0.25 mg/kg i.v.)) was “no changes in platelet counts” and the effect on platelets (rabbits [7]; single 14.0 mg/kg i.v.) was “persistent thromobocytopenia”. For the same molecule, the “decrease in the granulocyte count” value (rabbits [7]; single 14.0 mg/kg i.v., disappeared in 30 days) was 50%, the LD50 (rabbits [7]; single i.v. dose) was 14.0 mg/kg and the most marked alterations (rabbits [8]) was “cell population reductions (especially of the myeloid elements) in the bone marrow”. For the same molecule, the “multinucleated cells, compared with mannitol mustard or dibromodulcitol” value ([9]; Ehrlich ascites tumor cells) was “more frequently”, the “time of earliest detectable ultrastructural effects” value ([9]; larger dose (7.5 mg/kg i.p.), after administration) was 3 h and the “time at which ultrastructural effect could be detected” value ([9]; smaller doses (3.7 mg/kg i.p.), after treatment) was 72 to 96 h. For the same molecule, the blood-brain barrier passage [10] was “rapidly crosses the blood-brain barrier”, the chromosome aberrations [11] was “induced characteristic chromosome aberrations” and the “local effect of the solution” value [12] was “slight, locally irritating effect”. The “concentration giving 50 percent survival (cloning efficiency)” value (Barle's L cells) was 4 µg/mL, the cytomorphologic effect (HeLa cell cultures; 100-μg dose) was “complete cellular disintegration” and the antitumor activity [13] was “activity”. The “animals recovered after treatment” value (S180 ascites tumors) was “Fifty”, the increase in lifespan (NK/Ly tumor) was 200% and the “atrophy of the spleen and lymph nodes, compared with dibromodulcitol” value (mice [14]; acute toxicity) was “more marked”. For the same molecule, the “time of death, compared with dibromodulcitol” value (mice [14]; acute toxicity) was “died earlier”, the “symptoms at the LD50” value (mice [14]; animals treated with the LD50 (15 mg/kg)) was “gastrointestinal symptoms (including weight loss) were dominant” and the LD80 (mice [14]; mice, single dose) was 18 mg/kg. The LD50 (mice [14]; mice, single dose, survivors observed 21 days) was 15 mg/kg.
For `Cc1ccc(NC(=O)c2ccc(CN3CCN(C)CC3)cc2)cc1Nc1nccc(-c2cccnc2)n1` [Gleevec, imatinib mesylate], the “estimated overall survival rate” value (CML; CML patients, following two years) is given as 91%, the “patients with cytogenetic response” value (CML) is given as “up to 60%” and the “patients free of disease worsening” value (CML; following two years) is given as roughly 90%.
In the case of `CS(=O)(=O)OC[C@@H](O)[C@@H](O)[C@H](O)[C@H](O)COS(C)(=O)=O` [mannitol myleran], the “drug accumulation” value (mice [1]) is listed as 45%.
